Measured values taken from patent publication US12552783B2, “Modulators of proteolysis and associated methods of use” (Arvinas Operations, Inc., priority 2018, dated 2026).

Molecular target: KRas (Homo sapiens, UniProt P01116, G12C)
Assay: KRas degradation in SW1573 cells by Western blot, normalized to GAPDH (data of Table 14)
Type: cell-based
Conditions: SW1573 cells
Protocol: Cell Lines, Antibodies, and Reagents. NCI-H2030 (CRL-5914) and SW1573 (CRL-2170) cells were purchased from ATCC. Both cell lines are homozygous for the G12C mutation in KRas. NCI-H2030 cells were cultured in RPMI-1640 medium containing 1% penicillin-streptomycin and 10% fetal bovine serum (FBS). SW1573 cells were cultured in DMEM containing 1% penicillin-streptomycin and 10% FBS. The KRas detection antibody (Cat. No. LS-C175665) was purchased from LifeSpan Biosciences and was used at a dilution of 1:2000. GAPDH was detected using an antibody purchased from Cell Signaling Technology (Cat. No. 5174) and was diluted 1:3000. Secondary anti-mouse and anti-rabbit detection antibodies were purchased from Cell Signaling Technology (Cat. Nos. 7076 and 7074, respectively).
Compound Treatment and Western Blotting of the Data of Table 14. Either NCI-H2030 or SW1573 cells were plated in 12-well plates and allowed to adhere overnight at 37° C. in an incubator containing 5% CO2. The following day, the medium was replaced with the appropriate medium lacking FBS to induce starvation. Cells were returned to the incubator for an additional 24 hours following media exchange. […] Cells were treated with VHL-based compounds for 24 hours and all other compounds for 72 hours. Following treatment, cells were lysed in RIPA buffer (Thermo Fisher Cat. No. 89900) containing phosphatase (Thermo Fisher Cat. No. 1861277) and protease (Thermo Fisher Cat. No. 78429) inhibitor cocktails. Lysates were cleared at 13,000 rpm for 15 minutes and supernatants were assayed for total protein concentration using the Pierce BCA assay system (Thermo Fisher Cat. No. 23225). For each sample, 10 μg total protein was resolved on a 12% Bis-Tris gel and then transferred to a nitrocellulose membrane. After blocking in 3% BSA in TBST (Tris-buffered Saline with 0.1% Tween-20) for 1 hour at room temperature, membranes were probed with the primary antibody (LS Bio Cat. No. LS-C175665) overnight at 4° C. After incubation with the secondary antibody, the following day membranes were visualized using the SuperSignal™ West Femto substrate (Thermo Fisher Cat. No. 34095). The KRas signal in each lane was normalized to GAPDH and percent degradation was either estimated as less than 25% by visual inspection (C in Table 13) or quantitated relative to the DMSO control lane using BIO-RAD Image Lab 5.2.1, and all data was plotted using GraphPad PRISM 6.07.
DC50 is the half-maximal degradation concentration—i.e., the concentration at which 50% degradation is observed. DMax is the maximum degradation efficacy is achieved—i.e., the maximal degradation observed) degradation data.

C=CC(=O)N1CCN(c2nc(O[C@H](C)CN3CCC(OCCOCCOCCOCCOc4ccc5c(c4)CN(C4CCC(=O)NC4=O)C5=O)CC3)nc3c2CCN(c2cc(O)cc4ccccc24)C3)CC1 (stereo partly drawn) [compound 424, 3-(5-(2-(2-(2-(2-((1-((R)-2-((4-(4-acryloylpiperazin-1-yl)-7-(3-hydroxynaphthalen-1-yl)-5,6,7,8-tetrahydropyrido[3,4-d]pyrimidin-2-yl)oxy)propyl)piperidin-4-yl)oxy)ethoxy)ethoxy)ethoxy)ethoxy)-1-oxoisoindolin-2-yl)piperidine-2,6-dione]
Percent Degradation at Indicated Concentration (μM) (0.1 μM): C (Percent Degradation: C ≤ 35)
Percent Degradation at Indicated Concentration (μM) (0.3 μM): C (Percent Degradation: C ≤ 35)
Percent Degradation at Indicated Concentration (μM) (1 μM): C (Percent Degradation: C ≤ 35)

CN1C[C@H](OCCOCCOc2ccc3c(c2)C(=O)N(C2CCC(=O)NC2=O)C3=O)C[C@H]1COc1nc2c(c(N3CCN(C(N)=O)[C@@H](CC#N)C3)n1)CCN(c1cccc3ccccc13)C2 (stereo partly drawn) [compound 539, (2S)-2-(cyanomethyl)-4-(2-(((2S,4R)-4-(2-(2-((2-(2,6-dioxopiperidin-3-yl)-1,3-dioxoisoindolin-5-yl)oxy)ethoxy)ethoxy)-1-methylpyrrolidin-2-yl)methoxy)-7-(naphthalen-1-yl)-5,6,7,8-tetrahydropyrido[3,4-d]pyrimidin-4-yl)piperazine-1-carboxamide]
Percent Degradation at Indicated Concentration (μM) (0.03 μM): C (Percent Degradation: C ≤ 35)
Percent Degradation at Indicated Concentration (μM) (0.1 μM): C (Percent Degradation: C ≤ 35)
Percent Degradation at Indicated Concentration (μM) (0.3 μM): C (Percent Degradation: C ≤ 35)
Percent Degradation at Indicated Concentration (μM) (1 μM): C (Percent Degradation: C ≤ 35)
Percent Degradation at Indicated Concentration (μM) (3 μM): C (Percent Degradation: C ≤ 35)

C=CC(=O)N1CCN(c2nc(O[C@H](C)CN3CCC(OCCOCCOCCOCCOc4cc([C@@H](C(=O)N5C[C@H](O)C[C@H]5C(=O)N[C@@H](C)c5ccc(-c6scnc6C)cc5)C(C)C)on4)CC3)nc3c(F)c(-c4cc(O)cc5ccccc45)c(Cl)cc23)CC1 [compound 531, (2S,4R)-1-((2S)-2-(3-(2-(2-(2-(2-((1-((2R)-2-((4-(4-acryloylpiperazin-1-yl)-6-chloro-8-fluoro-7-(3-hydroxynaphthalen-1-yl)quinazolin-2-yl)oxy)propyl)piperidin-4-yl)oxy)ethoxy)ethoxy)ethoxy)ethoxy)isoxazol-5-yl)-3-methylbutanoyl)-4-hydroxy-N-((S)-1-(4-(4-methylthiazol-5-yl)phenyl)ethyl)pyrrolidine-2-carboxamide]
Percent Degradation at Indicated Concentration (μM) (0.03 μM): C (Percent Degradation: C ≤ 35)
Percent Degradation at Indicated Concentration (μM) (0.1 μM): C (Percent Degradation: C ≤ 35)
Percent Degradation at Indicated Concentration (μM) (0.3 μM): C (Percent Degradation: C ≤ 35)

C=CC(=O)N1CCN(c2nc(O[C@H](C)CN3CCC(OCCOCCOc4ccc5c(c4)C(=O)N(C4CCC(=O)NC4=O)C5=O)CC3)nc3c2CCN(c2cc(O)cc4ccccc24)C3)CC1 (stereo partly drawn) [compound 417, 5-(2-(2-((1-((R)-2-((4-(4-acryloylpiperazin-1-yl)-7-(3-hydroxynaphthalen-1-yl)-5,6,7,8-tetrahydropyrido[3,4-d]pyrimidin-2-yl)oxy)propyl)piperidin-4-yl)oxy)ethoxy)ethoxy)-2-(2,6 dioxopiperidin-3-yl)isoindoline-1,3-dione]
Percent Degradation at Indicated Concentration (μM) (0.1 μM): C (Percent Degradation: C ≤ 35)
Percent Degradation at Indicated Concentration (μM) (0.3 μM): C (Percent Degradation: C ≤ 35)
Percent Degradation at Indicated Concentration (μM) (1 μM): C (Percent Degradation: C ≤ 35)

C=CC(=O)N1CCN(c2nc(O[C@H](C)CN3CCC(CN4CCN(CC(=O)N[C@H](C(=O)N5C[C@H](O)C[C@H]5C(=O)N[C@@H](C)c5ccc(-c6scnc6C)cc5)C(C)(C)C)CC4)CC3)nc3c(F)c(-c4cc(O)cc5ccccc45)c(Cl)cc23)CC1 [compound 403, (2S,4R)-1-((2S)-2-(2-(4-((1-((2R)-2-((4-(4-acryloylpiperazin-1-yl)-6-chloro-8-fluoro-7-(3-hydroxynaphthalen-1-yl)quinazolin-2-yl)oxy)propyl)piperidin-4-yl)methyl)piperazin-1-yl)acetamido)-3,3-dimethylbutanoyl)-4-hydroxy-N-((S)-1-(4-(4-methylthiazol-5-yl)phenyl)ethyl)pyrrolidine-2-carboxamide]
DC50: < 0.1 µM
Dmax: 35 to 70%
Percent Degradation at Indicated Concentration (μM) (0.01 μM): C (Percent Degradation: C ≤ 35)
Percent Degradation at Indicated Concentration (μM) (0.03 μM): B (35 < B < 70)
Percent Degradation at Indicated Concentration (μM) (0.1 μM): B (35 < B < 70)
Percent Degradation at Indicated Concentration (μM) (0.3 μM): B (35 < B < 70)
Percent Degradation at Indicated Concentration (μM) (1 μM): C (Percent Degradation: C ≤ 35)

C=CC(=O)N1CCN(c2nc(O[C@H](C)CN3CCC(OCCOCCOc4cc([C@H](C(=O)N5C[C@H](O)C[C@H]5C(=O)N[C@@H](C)c5ccc(-c6scnc6C)cc5)C(C)C)on4)CC3)nc3c(F)c(-c4cc(O)cc5ccccc45)c(Cl)cc23)CC1 [compound 527, (2S,4R)-1-((2R)-2-(3-(2-(2-((1-((2R)-2-((4-(4-acryloylpiperazin-1-yl)-6-chloro-8-fluoro-7-(3-hydroxynaphthalen-1-yl)quinazolin-2-yl)oxy)propyl)piperidin-4-yl)oxy)ethoxy)ethoxy)isoxazol-5-yl)-3-methylbutanoyl)-4-hydroxy-N-((S)-1-(4-(4-methylthiazol-5-yl)phenyl)ethyl)pyrrolidine-2-carboxamide]
Percent Degradation at Indicated Concentration (μM) (0.03 μM): C (Percent Degradation: C ≤ 35)
Percent Degradation at Indicated Concentration (μM) (0.1 μM): C (Percent Degradation: C ≤ 35)
Percent Degradation at Indicated Concentration (μM) (0.3 μM): C (Percent Degradation: C ≤ 35)

C=CC(=O)N1CCN(c2nc(OC[C@@H]3C[C@@H](OCCOCCNc4cccc5c4C(=O)N(C4CCC(=O)NC4=O)C5=O)CN3C)nc3c2CCN(c2cccc4ccccc24)C3)C[C@@H]1CC#N (stereo partly drawn) [compound 516, 2-((2S)-1-acryloyl-4-(2-(((2S,4R)-4-(2-(2-((2-(2,6-dioxopiperidin-3-yl)-1,3-dioxoisoindolin-4-yl)amino)ethoxy)ethoxy)-1-methylpyrrolidin-2-yl)methoxy)-7-(naphthalen-1-yl)-5,6,7,8-tetrahydropyrido[3,4-d]pyrimidin-4-yl)piperazin-2-yl)acetonitrile]
Dmax: 35 to 70%
Percent Degradation at Indicated Concentration (μM) (0.1 μM): C (Percent Degradation: C ≤ 35)
Percent Degradation at Indicated Concentration (μM) (0.3 μM): B (35 < B < 70)
Percent Degradation at Indicated Concentration (μM) (1 μM): B (35 < B < 70)

C=CC(=O)N1CCN(c2nc(O[C@H](C)CN3CCC(OCCOCCOCCOCCOc4ccc5c(c4)C(=O)N(C4CCC(=O)NC4=O)C5=O)CC3)nc3c(F)c(-c4cc(O)cc5ccccc45)c(Cl)cc23)CC1 (stereo partly shown) [compound 429]
Percent Degradation at Indicated Concentration (μM) (0.1 μM): C (Percent Degradation: C ≤ 35)
Percent Degradation at Indicated Concentration (μM) (0.3 μM): C (Percent Degradation: C ≤ 35)
Percent Degradation at Indicated Concentration (μM) (1 μM): C (Percent Degradation: C ≤ 35)

CN1C[C@H](OCCOCCNc2cccc3c2C(=O)N(C2CCC(=O)NC2=O)C3=O)C[C@H]1COc1nc2c(c(N3CCN(C(N)=O)[C@@H](CC#N)C3)n1)CCN(c1cccc3ccccc13)C2 (stereo partly drawn) [compound 543, (2S)-2-(cyanomethyl)-4-(2-(((2S,4R)-4-(2-(2-((2-(2,6-dioxopiperidin-3-yl)-1,3-dioxoisoindolin-4-yl)amino)ethoxy)ethoxy)-1-methylpyrrolidin-2-yl)methoxy)-7-(naphthalen-1-yl)-5,6,7,8-tetrahydropyrido[3,4-d]pyrimidin-4-yl)piperazine-1-carboxamide]
Percent Degradation at Indicated Concentration (μM) (0.3 μM): C (Percent Degradation: C ≤ 35)
Percent Degradation at Indicated Concentration (μM) (1 μM): C (Percent Degradation: C ≤ 35)
Percent Degradation at Indicated Concentration (μM) (3 μM): C (Percent Degradation: C ≤ 35)
